Assay results published in BindingDB's records for doi:10.1111/cbdd.12752 (Jagiellonian University Medical College, 2016).

The compounds below were run against Histamine H4 receptor (Homo sapiens, UniProt Q9H3N8) (assay: In vitro [3H]histamine Binding Assay). Conditions: pH 7.4; 4 °C.
Protocol: Prior to the experiments, cell membranes were sedimented by a 10 min centrifugation at 4 °C and 16 0009x g and resuspended in binding buffer (12.5 mM MgCl2, 1 mM EDTA and 75 mM Tris/HCl, pH 7.4). Competition binding experimentswere carried out by incubating membranes, 35 ug/well (prepared from Sf9 cells transiently expressing human H4R, co-expressed with G proteins Galphai2 and Gbeta1gamma2 subunits) in a final volume of 0.2 mL containing binding buffer and [3H]histamine 2x HCl (10 nM, 15.3 Ci/mmol, PerkinElmer, Waltham, MA, USA) in a 96 well microtitre plate. Assays were run in duplicates or triplicates with four or seven appropriate concentrations between 100 nM or 0.1 nM and 100 uM of the test compounds. Amount of experiments was at least 2. Only exceptions were for substance 2, 3, and 4 where only one experiment in duplicates was performed.Incubations were performed for 60 min at 25 °C and shaking at 250 rpm. Non-specific binding was determined.

| Ki | SMILES |
| --- | --- |
| > 100 µM | CN1CCN(C(=O)c2ccccc2Cl)CC1 [(2-Chlorophenyl)(4-methylpiperazin-1-yl)methanone (1)] |
| > 100 µM | CN1CCN(CCCNC(=O)c2cc3cc(Cl)ccc3[nH]2)CC1 [5-Chloro-N-(3-(4-methylpiperazin-1-yl)propyl)-1H-indole-2-carboxamide (5)] |
| 14.6 µM | CN1CCN(c2nc(N)nc(CN3C(=O)NC(C)(C)C3=O)n2)CC1 [3-((4-Amino-6-(4-methylpiperazin-1-yl)-1,3,5-triazin-2-yl)methyl)-5,5-dimethylimidazolidine-2,4-dione (9)] |
| 5.6 µM | CN1CCN(c2nc(N)nc(Cc3cccc4ccccc34)n2)CC1 [4-(4-Methylpiperazin-1-yl)-6-(naphthalen-1-ylmethyl)-1,3,5-triazin-2-amine (12)] |
| 10.6 µM | CN1CCN(c2nc(N)nc(COc3ccc(Cl)cc3)n2)CC1 [4-((4-Chlorophenoxy)methyl)-6-(4-methylpiperazin-1-yl)-1,3,5-triazin-2-amine (14)] |
| 3.19 µM | CN1CCN(c2nc(N)nc(-c3ccncc3)n2)CC1 [4-(4-Methylpiperazin-1-yl)-6-(pyridin-4-yl)-1,3,5-triazin-2-amine (15)] |
| > 100 µM | CN1CCN(CCCNC(=O)c2sc3cc(Cl)ccc3c2Cl)CC1 [3,6-Dichloro-N-(3-(4-methylpiperazin-1-yl)propyl)benzo[b]thiophene-2-carboxamide (6)] |
| > 100 µM | CN1CCN(CCCNC(=O)Nc2cccc(Cl)c2)CC1 [1-(3-Chlorophenyl)-3-(3-(4-methylpiperazin-1-yl)propyl)urea (7)] |
| 7.5 µM | CN1CCN(c2nc(N)nc(Cc3ccccc3)n2)CC1 [4-Benzyl-6-(4-methylpiperazin-1-yl)-1,3,5-triazin-2-amine (13)] |
| 7.55 µM | CN1CCN(C(=O)c2ccc(Cl)cc2)CC1 [(4-Chlorophenyl)(4-methylpiperazin-1-yl)methanone (3)] |
| 3.88 µM | CN1CCN(C(=O)c2cccc(Cl)c2)CC1 [(3-Chlorophenyl)(4-methylpiperazin-1-yl)methanone (2)] |
| 3.52 µM | CN1CCN(C(=O)Nc2ccc(Cl)cc2)CC1 [N-(4-Chlorophenyl)-4-methylpiperazine-1-carboxamide (4)] |

| SMILES | Ki |
| --- | --- |
| CC(C)Cc1nc(N)nc(N2CCN(C)CC2)n1 [4-(4-Methylpiperazin-1-yl)-6-(2-methylpropyl)-1,3,5-triazin-2-amine (10)] | 8.26 µM |
